The values below come from BindingDB's records for doi:10.3109/14756366.2010.528415 (Khyber Medical College, 2011).

The term IC50 denotes the point on the concentration scale where inhibition reaches its midpoint.

This assay addresses Urease (Canavalia ensiformis, UniProt P07374). The experiment in a line: Urease Inhibition Assay. How it is done:
Reaction mixtures comprising 25 μL of enzyme (jack bean urease) solution and 55 μL of buffers containing 100 mM urea were incubated with 5 μL of test compounds (0.5 mM concentration) at 30°C for 15 min in 96-well plates. Urease activity was determined by measuring ammonia production using the indophenol method as described by weather burn14. Briefly, 45 μL each phenol reagent (1% w/v phenol and 0.005% w/v sodium nitroprusside) and 70 μL of alkali reagent (0.5% w/v NaOH and0.1% active chloride NaOCl) were added to each well. The increasing absorbance at 630 nm was measured after 50 min, using a microplate reader (Molecular Device). All reactions were performed in triplicate in a final volume of 200 μL.

Sequence of Urease (P07374 whole entry): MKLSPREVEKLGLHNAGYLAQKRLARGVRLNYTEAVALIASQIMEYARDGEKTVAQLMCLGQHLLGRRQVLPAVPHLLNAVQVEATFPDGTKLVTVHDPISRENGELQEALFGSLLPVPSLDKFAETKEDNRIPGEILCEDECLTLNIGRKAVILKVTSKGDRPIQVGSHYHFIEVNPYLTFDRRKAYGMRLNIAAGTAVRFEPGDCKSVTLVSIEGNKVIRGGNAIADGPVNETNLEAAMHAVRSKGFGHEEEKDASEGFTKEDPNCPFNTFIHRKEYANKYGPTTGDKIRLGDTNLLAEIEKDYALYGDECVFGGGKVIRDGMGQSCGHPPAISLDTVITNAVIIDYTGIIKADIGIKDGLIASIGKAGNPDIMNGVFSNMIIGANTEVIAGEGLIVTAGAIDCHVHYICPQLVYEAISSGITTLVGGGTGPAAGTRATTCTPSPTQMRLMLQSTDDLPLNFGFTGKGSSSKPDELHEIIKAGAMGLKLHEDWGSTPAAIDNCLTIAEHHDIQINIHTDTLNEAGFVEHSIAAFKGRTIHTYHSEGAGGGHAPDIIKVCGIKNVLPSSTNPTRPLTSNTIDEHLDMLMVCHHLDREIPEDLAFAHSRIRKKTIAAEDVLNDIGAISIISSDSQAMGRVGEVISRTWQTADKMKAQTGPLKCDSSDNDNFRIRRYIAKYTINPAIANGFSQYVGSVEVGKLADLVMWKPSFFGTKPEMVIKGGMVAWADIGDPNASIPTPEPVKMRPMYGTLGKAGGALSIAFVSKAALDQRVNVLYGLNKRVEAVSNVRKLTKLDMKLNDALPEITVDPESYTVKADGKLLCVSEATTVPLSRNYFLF

With `CC(C)CCCCc1ccc(O[C@@H]2OC(CO)[C@H](O)[C@@H](O)C2O)cc1` (some centres not stated) [Indigoferin-B (2)], 29.7 µM corresponded to half-maximal inhibition (IC50).

`CC(O)CCCCC(=O)c1c(O)cc(O)cc1O` (configuration not stated) [Indigoferin-C (3)] displayed a concentration for half-maximal inhibition (IC50) of 23.3 µM.
